Source: US20210369583A1, “COMPOSITIONS FOR PROVIDING SKIN CARE BENEFITS AND METHODS OF USE” (Danisco US Inc., priority 2018, published 2021)
Marks after values point to notes of the source that are not given here.

Columns and labels:
Format in all cases: cell-based
[1] = test system: Reconstructed Human Epidermis (RHE); experiment: Caffein diffusion test on Reconstituted Human Epidermis (RHE); conditions: for caffein diffusion through RHE: systemic treatment
Procedure: By measuring the amount of […] […] The epidermis used was a Reconstructed Human Epidermis, called “RHE”, 0-day-old, batch no 01015-444, placed in culture conditions 37° C., 5% CO2. The assay medium was the Bioalternatives maintenance medium. RHE at Day 0 (when placed at the air/liquid interface) were placed in assay medium containing or not (control) the compounds, the combination or the reference (vitamin C at 200 μg/ml). This is referred to as a systemic application, to be differentiated from a topical application. RHE were then incubated for 7 days with treatment renewal at Day 3 and Day 5. All experimental conditions were performed in n=3. At the end of incubation (Day 7), radioactive […] ([^14[…] applied on the surface of each epidermis. The radioactivity contained in subnatants was measured by liquid scintillation after 30 minutes, 1, 2, 3, 4, 5, 6, 7 and 8 hours of incubation. The barrier function is calculated according to the below formula:

[2] = test system: human living skin explant; experiment: Immunostaining of carbonylated proteins (FTZ) on human living skin explants; conditions: UV irradiated
Procedure: (§1) human skin explants of an average diameter of 12 mm (±1 mm) were prepared on an abdoplasty coming from a person). The explants were kept in survival in BEM culture medium at 37° C. in a humid, 5%-CO2 atmosphere.
(§2) On day 0 (D0), day 1, day 2 and day 3 (3 hours before irradiation), the tested products were applied topically on surface of skin explants at the rate of 2 mg/cm^2, twice a day for D1 and D2 and once on DO and D3. […] The medium was half renewed (1 ml per well) on day 2.
(§3) On D3, the culture media of all the batches was replaced by HBSS solution (Hank's Balanced Saline Solution; 1 ml per explant). The batches “UV” were irradiated by UVA+ UVB using a UV simulator Vibert Lourmat RMX 3W with a dose of 18 J/cm2 of UVA (4 MED, minimal erythemal dose) and 0.3 J/cm2 of UVB (2 MED). The unirradiated batches were kept in HBSS in the dark. At the end of the irradiation the explants were put back in 2 mL of BEM medium.
(§4) After fixation for 24 hours in buffered formalin, the samples were dehydrated and impregnated in paraffin using a Leica PEARL dehydration automat. The samples were embedded using a Leica EG 1160 embedding station. 5-μm-thick sections were made using a Leica RM 2125 Minot-type microtome, and the sections were mounted on Superfrost® histological glass slides. The frozen samples were cut into 7-μm-thick sections using a Leica CM 3050 cryostat. Sections were then mounted on Superfrost® plus silanized glass slides. The microscopical observations were realized using a Leica DMLB or Olympus BX43 microscope. Pictures were digitized with a numeric DP72 Olympus camera with CellD storing software.
Protein carbonylation is a type of protein oxidation that can be promoted by reactive oxygen species (ROS), generated by UV exposure. FTZ marker assay was conducted by immunostaining in the living epidermis of human skin explant as follows: Carbonylated proteins were stained on frozen sections with the anti-carbonylated proteins probe (fluorescein-5-thiosemicarbazid-FTZ) (Lifetechnologies, Ref. F-121) diluted at 0.5 μM in MES-Na+ and incubated for 30 minutes in the dark and at room temperature. The staining was observed by epifluorescence and assessed by microscopical observations. Batches analyzed were T, TUV, P1UV, P2UV, P3UV at day 4 also referred to as TJ4, TUVJ4, P1UVJ4, P2UVJ4, P3UVJ4

[3] = test system: living human skin explants; experiment: Biochemical assay of MDA (lipid peroxidation) on living human skin explants exposed to pollutants
Procedure: Product A (Table 11) was diluted in water to obtain the following products at concentrations: product P1=A at 4%, product P2=A at 2% and product P3=A at 1%.
59 human skin explants of an average diameter of 14 mm (±1 mm) were prepared on an abdoplasty coming from a person. The explants were kept in survival in BEM culture medium at 37° C. in a humid, 5%-CO2 atmosphere.
The tested products were topically applied on the basis of 2 μl per cm^2 and spread using a small spatula twice a day (morning and evening) on day 0, 1, 2, 3 and 4.
On D4, the explants of the batches ML and PML were placed on the 3D grid with 900 μl of HBSS and placed into the PolluBox® system.
3 mL of the solution <<ML>> (supplemented with 150 μl/ml of NaCl 0.9%) were exposed by vaporization for 1 hour and half, as shown in the figure below.
The MDA assay was realized with an enhanced method of the TBARs (Thiobarbituric Acid Reactive Species) assay. The MDA was assayed in HBSS medium by addition of TBARs solution (thiobarbituric acid, hydrochloric acid and tricholoroacetic acid) and placed in a water bath (80° C. for 15 minutes). A lot of substances (like glucose) which are not related with lipoperoxidation, react with thiobarbituric acid (ThioBarbituric Acid Reagents=TBARS), so to enhance the specificity of the assay, the MDA was extracted by a liquid/liquid extraction with butanol. The MDA in butanol was measured in spectrofluorimetry (excitation: 515 nm, emission: 550 nm) using a Tecan Infinite M200 Pro microplate reader. Using this assay, MDA contained in the culture medium BEMc on […] was measured for the 4 explants per batch. The MDA concentration was expressed in pmol of MDA/ml of the medium. Concerned batches: all batches on day 5, 4 explants per batch.
The average of the blank batch TJ5 was calculated (154.0 nmol/L). Then, for each explant of MLJ5, this average value was subtracted from […]. That corresponds to calculating the delta (increase) of MDA induced by ML for each explant compared to the average of the batch without ML, it is ΔML.
These average deltas were then compared to the average delta of MDA induction without treatment (ΔML).

[4] = test system: human living skin explant; experiment: Cell viability of human living skin explants (UV study); conditions: day 4
Procedure: as §1, §2, §3, §4

[5] = test system: human living skin explant; experiment: TUNEL assay (UV-induced DNA damage) on human living skin explants
Procedure: as §1, §2, §3, §4
DNA oxidization is a type of damage that can be promoted by reactive oxygen species (ROS), generated by UV exposure. […] The staining was assessed by microscopical observation. Batches analyzed were T, TUV, P1UV, P2UV, P3UV at day 4 also referred to as TJ4, TUVJ4, P1UVJ4, P2UVJ4, P3UVJ4 (T=Control batch non treated non irradiated; TJ4=T at Day 4 (D4); TUV: control batch non treated UV irradiated; TUVJ4=[…] at Day 4; P1J4: product A 4% non irradiated at D4; P2J4: product A 2% non irradiated at D4; P3J4: product A 1% non irradiated at D4; P1UV: product A 4% UV irradiated; P1UVJ4: product A 4% UV irradiated at D4 P2UV: product A 2% UV irradiated; P2UVJ4: product A 2% UV irradiated at D4; P3UV: product A 1% UV irradiated; P3UVJ4: product A 1% UV irradiated at D4

In the case of O=C1O[C@H]([C@@H](O)CO)C(O)=C1O [vitamin C], the “caffein diffusion through RHE” value ([1]; 200 μg/ml) is reported as “decreased significantly this diffusion”.
C[N+](C)(C)CC(=O)O [betaine] was tested, and the “Barrier function % Control” value ([1]; 0.5 hrs, 10 mg/ml) was 97%, the “Mean [14C]-caffein (cpm)” value ([1]; 0.5 hrs, 10 mg/ml) was 20507 cpm and the “[14C]-caffein % Control” value ([1]; 0.5 hrs, 10 mg/ml) was 104%. For the same compound, the “Barrier function % Control” value ([1]; 1 hrs, 10 mg/ml) was 91%, the “Mean [14C]-caffein (cpm)” value ([1]; 1 hrs, 10 mg/ml) was 50356 cpm and the “[14C]-caffein % Control” value ([1]; 1 hrs, 10 mg/ml) was 110%. The “Barrier function % Control” value ([1]; 2 hrs, 10 mg/ml) was 85%, the “Mean [14C]-caffein (cpm)” value ([1]; 2 hrs, 10 mg/ml) was 117502 cpm and the “[14C]-caffein % Control” value ([1]; 2 hrs, 10 mg/ml) was 117%. The “Barrier function % Control” value ([1]; 3 hrs, 10 mg/ml) was 87%, the “Mean [14C]-caffein (cpm)” value ([1]; 3 hrs, 10 mg/ml) was 156579 cpm and the “[14C]-caffein % Control” value ([1]; 3 hrs, 10 mg/ml) was 114%. The “Barrier function % Control” value ([1]; 4 hrs, 10 mg/ml) was 91%, the “Mean [14C]-caffein (cpm)” value ([1]; 4 hrs, 10 mg/ml) was 173278 cpm and the “[14C]-caffein % Control” value ([1]; 4 hrs, 10 mg/ml) was 110%. The “Barrier function % Control” value ([1]; 5 hrs, 10 mg/ml) was 92%, the “Mean [14C]-caffein (cpm)” value ([1]; 5 hrs, 10 mg/ml) was 186588 cpm and the “[14C]-caffein % Control” value ([1]; 5 hrs, 10 mg/ml) was 108%. For the same compound, the “Barrier function % Control” value ([1]; 6 hrs, 10 mg/ml) was 93%, the “Mean [14C]-caffein (cpm)” value ([1]; 6 hrs, 10 mg/ml) was 193499 cpm and the “[14C]-caffein % Control” value ([1]; 6 hrs, 10 mg/ml) was 107%. The “Barrier function % Control” value ([1]; 7 hrs, 10 mg/ml) was 96%, the “Mean [14C]-caffein (cpm)” value ([1]; 7 hrs, 10 mg/ml) was 196233 cpm and the “[14C]-caffein % Control” value ([1]; 7 hrs, 10 mg/ml) was 104%. For the same compound, the “Barrier function % Control” value ([1]; 8 hrs, 10 mg/ml) was 99%, the “Mean [14C]-caffein (cpm)” value ([1]; 8 hrs, 10 mg/ml) was 195439 cpm and the “[14C]-caffein % Control” value ([1]; 8 hrs, 10 mg/ml) was 101%. The “caffein diffusion through RHE” value ([1]; 3 mg/ml) was “induced a decrease of caffein diffusion through the RHE only after 30 minutes” and the “caffein diffusion through RHE” value ([1]; 10 mg/ml) was “No inhibitory effect”.
For O=C(O)[C@@H]1CCCN1 [Combination P5, L-Proline], the “effect on UV-induced carbonylated proteins” value [2] was “slightly inhibits the formation of carbonylated proteins”, the “MDA, variation ΔPML vs ΔML” value ([3]; MDA induction by pollutants, day 5) was −48%* and the “reduction of the increase of MDA” value ([3]; after pollutant exposure (ΔPML vs ΔML)) was 48%. For the same compound, the “MDA, variation PML vs ML” value ([3]; after pollutants exposure, day 5) was −14% #, the “Cell Viability, variation vs TUVJ4” value ([4]; UV irradiated) was “↔ (indicates no variation)” and the “Cell Viability, variation vs TJ4” value ([4]; non irradiated) was “↔ (indicates no variation)”. For the same compound, the “activity against UV-induced DNA damage” value ([5]; UV irradiated) was “totally inhibits the increase of DNA damage” and the “DNA damage (TUNEL), variation vs TJ4” value ([5]; non irradiated, day 4) was “↔ (indicates no variation)”.
